# Measurements from US9907791B2, “Ron inhibitors for use in preventing and treating bone loss” (UNIVERSITY OF UTAH RESEARCH FOUNDATION, priority 2014, dated 2018).
# Assays:
# bone marrow osteoclasts [1] = assay: Osteoclast survival assay; assay type: cell-based, mice; conditions: 10 μM Src inhibitor daily from day 7 for 48 hours, with MSP
# Method: Bone marrow precursor cells were thawed and seeded at a density of 2×10^5 cells per well in a 24-well plate containing glass coverslips in α-MEM media containing 10% FBS and antibiotics. After adhering overnight, media was removed and media containing 33 ng/mL hM-CSF and 9 ng/mL muRANKL was added. Cells were allowed to differentiate for 7 days with media changed every 3 days. Coverslips were then imaged microscopically using phase contrast to determine osteoclast number in each well. To test survival, factor-containing media was removed and α-MEM media containing 10% FBS was added as well as MSP as indicated. Cells were cultured for an additional 48 hours, fixed with 10% NBF for 10 minutes and washed with 1×PBS. For TRAP fluorescent staining, the leukocyte acid phosphatase kit (Sigma, St. Louis, Mo.) was used according to the manufacturer's instructions, with the substitution of 200 μM ELF97 (Invitrogen, Waltham, Mass.) as a phosphatase substrate. Coverslips were incubated in TRAP solution for 15 minutes at 37 degrees, washed with 1×PBS and counterstained with DAPI. The number of multinucleated TRAP+ cells (containing 4 or more nuclei) within 5 representative fields were included for quantification. Experiments were performed in triplicate.
# [2] = test system: MSP-overexpressing MDA-MB-231 cells; assay: Intratibial MSP-overexpressing MDA-MB-231 tumor-induced osteolysis; assay type: in vivo, NOD.SCID mice; conditions: treated 3 days post tumor cell injection, sacrificed 30 days
# Description: (§1) All procedures involving mice and experimental protocols were approved by the Institutional Animal Care and Use Committee (IACUC) of the University of Utah. The RonTK−/− mice which reside on the FVB background, were crossed with NOD.SCID mice for an immune-compromised mouse model. As a control, wild-type FVB mice were also crossed with NOD.SCID mice. The STK−/− mice, which are on a C57BL/6 background, were compared to wild-type C57BL/6 mice as controls. Mice for all experiments were 6 to 8 weeks of age. For intratibial injections, 1×10^5 (PyMTor DU4475) or 3×10^5 (MDA-MB-231) tumor cells were resuspended in 10 μL matrigel and injected into the right tibia of anesthetized female FVB (PyMT) or NOD.SCID mice carrying various alleles of RON. Osteolysis was assessed by X-ray radiography. Dissected hindlimbs from mice sacrificed at the final time point in each experiment were placed in the Kodak In-vivo Multispectral Imaging System FX and exposed to X-ray radiography at 35 kV for 100 sec. Excess tumor tissue was removed from the bones prior to X-ray. Osteolytic lesions were quantified using Image J software (NCBI). All images were compared to the contralateral leg as an internal control.
# (§2) For in vivo experiments, the OSI-296 inhibitor was dissolved in 40% Trappsol with 0.01 M HCl, and mice were treated at a concentration of 200 mg/kg daily by oral gavage. […]
# RON = RON (Homo sapiens, UniProt Q04912); conditions: from the cited IC50 values; cited from earlier work
# PyMT-MSP tumor cells = assay: Intratibial PyMT-MSP tumor-induced osteolysis; assay type: in vivo, mice
# Description: as §1
# Hindlimb bones were excised from mice at the time of sacrifice and bones were fixed in 10% neutral-buffered formalin, decalcified in Formical-2000 (Decal Corporation, Tallman, N.Y.) for 8 days and embedded in paraffin for hematoxylin and eosin (H & E) or immunohistochemical staining. Osteoclast number was assessed as TRAP^+ multinucleated cells containing 4 or more nuclei and reported as TRAP^+ cells per field. Three sections per mouse and 5 fields per section were used for quantification with fields representing the entire length of the tibia. Tumor proliferation rate was reported as the number of cells which were positive for phospho-H3 staining compared to the number of unstained cells per field expressed as a percent. Three sections per mouse and 5 fields per section were used for quantification with analysis being restricted to within the bone marrow cavity. Immunohistochemical analysis was performed with heat-induced antigen retrieval in sodium-citrate buffer (Dako, Denmark). Primary antibodies used were anti-TRAP at 1:50 (Santa Cruz, sc-30833, Dallas, Tex.), anti-Ki67 at 1:100 (Santa Cruz, sc-12202S, Dallas, Tex.), anti-phosphoH3 at 1:100 (Cell Signaling, #9701, Beverly, Mass.), anti-NFATc1 at 1:50 (Santa Cruz, sc-13033, Dallas, Tex.), and anti-RON at 1:250 (Santa Cruz, sc-322, Dallas, Tex.). Bones from mice lacking RON were used as a negative control. Biotinylated secondary antibody was used with the EnVision^+ system HRP kit (Dako, Denmark) and nuclei counterstained with hematoxylin.
# For in vivo experiments, the OSI-296 inhibitor was dissolved in 40% Trappsol with 0.01 M HCl, and mice were treated at a concentration of 200 mg/kg daily by oral gavage. Treatment began either 3 days after tumor cell injection for prophylactic experiments, or 3 weeks after tumor cell injection for therapeutic experiments. ASLAN002 was dissolved in 70% PEG400 with 1×PBS and mice were treated at a concentration of 50 mg/kg daily by oral gavage. muRANK-Fc was given at a concentration of 10 mg/kg every three days by intra-peritoneal injection. For the osteoporosis study, mice were treated beginning on the day after ovary removal. The treatment regimen for OSI-296 was 200 mg/kg every other day by oral gavage. ASLAN002 was administered at 50 mg/kg every other day by oral gavage. Treatment continued until the time of sacrifice at 28 days.
# bone marrow osteoclasts [3] = assay: Osteoclast resorption assay; assay type: cell-based, mice; conditions: WT osteoclasts, inhibitors 10 μM or muRANK-Fc 10 μg/mL daily day 9 to 12
# Method: Bone marrow osteoclasts were generated from 6 to 8 week old WT and RonTK−/− mice. Briefly, bone marrow was isolated from hindlimb bones and plated in α-MEM media containing 10% heat-inactivated fetal bovine serum (FBS, Sigma, St. Louis, Mo.), 100 units/mL penicillin-streptomycin (Hyclone), and 33 ng/mL human macrophage colony-stimulating factor (hM-CSF) (PeproTech, Rocky Hill, N.J.) for 24 hours. Non-adherent cells were collected and frozen for later use. To assess resorption activity, bone marrow precursor cells were thawed and seeded at a density of 1×10^5 cells per well in BioCoat Osteologic slides (BD Biosciences, San Jose, Calif.) in α-MEM media containing 10% FBS and antibiotics. After adhering overnight, media was removed and media containing 33 ng/mL hM-CSF and 9 ng/mL muRANKL (R & D systems, Minneapolis, Minn.) was added. The medium was changed every 3 days depending on acidification, and the assay was terminated as indicated. Recombinant human MSP was prepared and added daily as indicated. Cells were removed with 6% bleach and slides were viewed microscopically using phase-contrast with 20× magnification. Osteolytic resorption area within 5 representative fields was determined using Image J software, experiments were performed in triplicate. […]
# PyMT control tumor cells = assay: Intratibial PyMT control tumor-induced osteolysis; assay type: in vivo, mice; conditions: WT mice, treatment began 3 days post injection, sacrificed 42 days post injection
# Description: as §1, §2
# Chain of RON (Q04912 25-1400): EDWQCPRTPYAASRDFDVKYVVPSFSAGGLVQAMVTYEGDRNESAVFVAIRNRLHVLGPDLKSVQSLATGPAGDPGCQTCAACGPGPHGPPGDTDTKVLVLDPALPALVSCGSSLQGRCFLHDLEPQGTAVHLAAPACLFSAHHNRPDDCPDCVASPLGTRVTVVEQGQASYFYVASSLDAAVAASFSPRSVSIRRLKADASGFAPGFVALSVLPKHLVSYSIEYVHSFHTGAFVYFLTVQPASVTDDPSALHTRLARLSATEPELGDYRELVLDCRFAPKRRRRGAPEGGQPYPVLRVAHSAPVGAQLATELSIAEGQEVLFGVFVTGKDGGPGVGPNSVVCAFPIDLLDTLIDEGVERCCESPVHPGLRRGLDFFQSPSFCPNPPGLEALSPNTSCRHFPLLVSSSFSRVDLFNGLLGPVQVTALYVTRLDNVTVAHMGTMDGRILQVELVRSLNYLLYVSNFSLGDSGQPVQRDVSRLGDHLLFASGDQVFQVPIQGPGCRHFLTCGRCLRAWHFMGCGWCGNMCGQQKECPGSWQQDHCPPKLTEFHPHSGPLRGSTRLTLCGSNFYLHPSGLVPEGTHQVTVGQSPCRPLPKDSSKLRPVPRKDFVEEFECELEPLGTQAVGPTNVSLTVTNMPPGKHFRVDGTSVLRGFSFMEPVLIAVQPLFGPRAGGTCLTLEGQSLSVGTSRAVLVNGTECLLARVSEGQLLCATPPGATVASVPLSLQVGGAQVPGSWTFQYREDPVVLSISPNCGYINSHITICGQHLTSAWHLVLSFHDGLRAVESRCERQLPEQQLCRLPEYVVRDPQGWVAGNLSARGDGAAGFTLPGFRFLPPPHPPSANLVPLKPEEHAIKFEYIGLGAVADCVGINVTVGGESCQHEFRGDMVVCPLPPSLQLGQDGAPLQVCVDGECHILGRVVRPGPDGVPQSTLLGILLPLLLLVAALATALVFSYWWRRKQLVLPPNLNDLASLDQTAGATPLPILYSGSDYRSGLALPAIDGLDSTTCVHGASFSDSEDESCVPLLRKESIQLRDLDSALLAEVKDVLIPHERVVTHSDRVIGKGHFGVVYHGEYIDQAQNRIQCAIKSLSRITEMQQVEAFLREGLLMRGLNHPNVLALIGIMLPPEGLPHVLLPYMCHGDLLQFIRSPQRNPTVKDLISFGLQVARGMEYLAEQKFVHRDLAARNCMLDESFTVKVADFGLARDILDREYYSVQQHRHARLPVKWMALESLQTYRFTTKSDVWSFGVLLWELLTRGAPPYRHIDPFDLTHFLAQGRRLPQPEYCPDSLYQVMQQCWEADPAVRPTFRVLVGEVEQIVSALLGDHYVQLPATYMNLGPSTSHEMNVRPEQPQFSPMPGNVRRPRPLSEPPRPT
SMILES,MSP-mediated osteoclast survival (bone marrow osteoclasts [1]),osteolysis from MSP-expressing MDA-MB-231 tumor cells [2],selectivity between RON and Met (RON),"inhibition of osteolysis (PyMT-MSP tumor cells; PyMT-MSP tumors, treatment beginning three days after tumor injection, average)",TRAP+ osteoclasts in tumor-bearing bones (PyMT-MSP tumor cells; TRAP staining of bone sections),PyMT-MSP tumor growth in the bone (PyMT-MSP tumor cells; caliper measurements),PyMT-MSP tumor proliferation rate in the bone (PyMT-MSP tumor cells; percent cells positive for phospho-H3),"progression of existing tumor-induced bone loss (PyMT-MSP tumor cells; post osteolysis treatment, about three weeks after tumor injection)",MSP-induced increase in osteoclast resorption (resorption area) (bone marrow osteoclasts [3]),osteolysis from PyMT control tumors (no MSP) (PyMT control tumor cells)
CN1CCN(CCOc2cc(OC3CCOCC3)c3c(Nc4c(Cl)ccc5c4OCO5)ncnc3c2)CC1 [AZD0530],blocked MSP-mediated survival,,,,,,,,,
C[C@@H](Oc1c(N)ncc2c(C3=CCN(C(N)=O)CC3)coc12)c1c(Cl)ccc(F)c1Cl [OSI-296],,reduce MSP-mediated osteolysis to levels seen in control tumor cells,more selective for Met,4-6 fold,no significant effect,reduced,reduced,prevent further tumor-induced bone loss,dramatically reduced,did not have an effect
